Measured values: PubChem BioAssay (NCI)
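Tested at 5 concentrations; 48 h exposure; 96-well plates; endpoints linearly interpolated, else capped at highest concentration. The concentration for 50% growth inhibition is given as GI50. TGI denotes the concentration required for complete inhibition of growth.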

Key:
Experiment in all cases: NCI anticancer screen, dose series, 48 h
NCI-H23 lung = system: NCI-H23 lung
MALME-3M melanoma = system: MALME-3M melanoma
OVCAR-3 ovarian = system: OVCAR-3 ovarian
SF-295 CNS = system: SF-295 CNS
HCT-116 colon = system: HCT-116 colon
SK-OV-3 ovarian = system: SK-OV-3 ovarian
BT-549 breast = system: BT-549 breast
RPMI-8226 leukemia = system: RPMI-8226 leukemia
HL-60(TB) leukemia = system: HL-60(TB) leukemia
A549 NSCLC = system: A549 NSCLC
PC-3 prostate = system: PC-3 prostate
HCT-15 colon = system: HCT-15 colon
NCI-H226 lung = system: NCI-H226 lung
UO-31 renal = system: UO-31 renal
SR leukemia = system: SR leukemia
SK-MEL-5 melanoma = system: SK-MEL-5 melanoma
OVCAR-5 ovarian = system: OVCAR-5 ovarian
SNB-19 CNS = system: SNB-19 CNS
IGROV1 ovarian = system: IGROV1 ovarian
UACC-257 melanoma = system: UACC-257 melanoma
786-0 renal = system: 786-0 renal
SF-268 CNS = system: SF-268 CNS
DU-145 prostate = system: DU-145 prostate
TK-10 renal = system: TK-10 renal
SK-MEL-2 melanoma = system: SK-MEL-2 melanoma
CAKI-1 renal = system: CAKI-1 renal
HT29 colon = system: HT29 colon
HOP-92 NSCLC = system: HOP-92 NSCLC
ACHN renal = system: ACHN renal
OVCAR-4 ovarian = system: OVCAR-4 ovarian
NCI/ADR-RES ovarian = system: NCI/ADR-RES ovarian
HCC-2998 colon = system: HCC-2998 colon
K-562 leukemia = system: K-562 leukemia
CCRF-CEM leukemia = system: CCRF-CEM leukemia
OVCAR-8 ovarian = system: OVCAR-8 ovarian
SF-539 CNS = system: SF-539 CNS
A498 renal = system: A498 renal
MOLT-4 leukemia = system: MOLT-4 leukemia
SNB-75 CNS = system: SNB-75 CNS
SN12C renal = system: SN12C renal
SW-620 colon = system: SW-620 colon
HS 578T breast = system: HS 578T breast
UACC-62 melanoma = system: UACC-62 melanoma
MCF7 breast = system: MCF7 breast
NCI-H522 lung = system: NCI-H522 lung
NCI-H460 lung = system: NCI-H460 lung
U251 CNS = system: U251 CNS
HOP-62 NSCLC = system: HOP-62 NSCLC
M14 melanoma = system: M14 melanoma
MDA-MB-231 breast = system: MDA-MB-231 breast
LOX IMVI melanoma = system: LOX IMVI melanoma
MDA-MB-435 = system: MDA-MB-435
KM12 colon = system: KM12 colon
EKVX NSCLC = system: EKVX NSCLC
T-47D breast = system: T-47D breast
SK-MEL-28 melanoma = system: SK-MEL-28 melanoma

COc1ccc(C(=O)C2C(C#N)C(C#N)C3C=Cc4ccccc4N32)cc1 (configuration not stated)
GI50 (NCI-H23 lung): 3.62 µM | TGI (NCI-H23 lung): > 100 µM | GI50 (MALME-3M melanoma): 2.67 µM | TGI (MALME-3M melanoma): > 100 µM | GI50 (OVCAR-3 ovarian): 0.642 µM | TGI (OVCAR-3 ovarian): 4.22 µM | GI50 (SF-295 CNS): 2.82 µM | TGI (SF-295 CNS): > 100 µM | GI50 (HCT-116 colon): 0.653 µM | TGI (HCT-116 colon): 14.9 µM | GI50 (SK-OV-3 ovarian): 7.3 µM | TGI (SK-OV-3 ovarian): > 100 µM | GI50 (BT-549 breast): 1.98 µM | TGI (BT-549 breast): > 100 µM | GI50 (RPMI-8226 leukemia): 3.48 µM | TGI (RPMI-8226 leukemia): > 100 µM | GI50 (HL-60(TB) leukemia): 1.23 µM | TGI (HL-60(TB) leukemia): 19.5 µM | GI50 (A549 NSCLC): 2.4 µM | TGI (A549 NSCLC): > 100 µM | GI50 (PC-3 prostate): 1.45 µM | TGI (PC-3 prostate): > 100 µM | GI50 (HCT-15 colon): 0.844 µM | TGI (HCT-15 colon): > 100 µM | GI50 (NCI-H226 lung): 2.29 µM | TGI (NCI-H226 lung): 30.2 µM | GI50 (UO-31 renal): 1.95 µM | TGI (UO-31 renal): > 100 µM | GI50 (SR leukemia): 0.544 µM | TGI (SR leukemia): > 100 µM | GI50 (SK-MEL-5 melanoma): 3.49 µM | TGI (SK-MEL-5 melanoma): 19.8 µM | GI50 (OVCAR-5 ovarian): 3.43 µM | TGI (OVCAR-5 ovarian): > 100 µM | GI50 (SNB-19 CNS): 3.71 µM | TGI (SNB-19 CNS): > 100 µM | GI50 (IGROV1 ovarian): 2.74 µM | TGI (IGROV1 ovarian): > 100 µM | GI50 (UACC-257 melanoma): > 100 µM | TGI (UACC-257 melanoma): > 100 µM | GI50 (786-0 renal): 4.43 µM | TGI (786-0 renal): > 100 µM | GI50 (SF-268 CNS): 3.92 µM | TGI (SF-268 CNS): > 100 µM | GI50 (DU-145 prostate): 2.93 µM | TGI (DU-145 prostate): > 100 µM | GI50 (TK-10 renal): > 100 µM | TGI (TK-10 renal): > 100 µM | GI50 (SK-MEL-2 melanoma): 7.44 µM | TGI (SK-MEL-2 melanoma): > 100 µM | GI50 (CAKI-1 renal): 0.46 µM | TGI (CAKI-1 renal): > 100 µM | GI50 (HT29 colon): 0.742 µM | TGI (HT29 colon): > 100 µM | GI50 (HOP-92 NSCLC): 2.77 µM | TGI (HOP-92 NSCLC): > 100 µM | GI50 (ACHN renal): 1.43 µM | TGI (ACHN renal): > 100 µM | GI50 (OVCAR-4 ovarian): 6 µM | TGI (OVCAR-4 ovarian): > 100 µM | GI50 (NCI/ADR-RES ovarian): 0.571 µM | TGI (NCI/ADR-RES ovarian): > 100 µM | GI50 (HCC-2998 colon): 2.99 µM | TGI (HCC-2998 colon): > 100 µM | GI50 (K-562 leukemia): 0.405 µM | TGI (K-562 leukemia): > 100 µM | GI50 (CCRF-CEM leukemia): 1.94 µM | TGI (CCRF-CEM leukemia): > 100 µM | GI50 (OVCAR-8 ovarian): 3.29 µM | TGI (OVCAR-8 ovarian): > 100 µM | GI50 (SF-539 CNS): 1.32 µM | TGI (SF-539 CNS): 4.08 µM | GI50 (A498 renal): 0.244 µM | TGI (A498 renal): 3.13 µM | GI50 (MOLT-4 leukemia): 2.6 µM | TGI (MOLT-4 leukemia): > 100 µM | GI50 (SNB-75 CNS): 0.278 µM | TGI (SNB-75 CNS): 5.57 µM | GI50 (SN12C renal): 2.5 µM | TGI (SN12C renal): > 100 µM | GI50 (SW-620 colon): 0.714 µM | TGI (SW-620 colon): > 100 µM | GI50 (HS 578T breast): 2.1 µM | TGI (HS 578T breast): > 100 µM | GI50 (UACC-62 melanoma): 0.781 µM | TGI (UACC-62 melanoma): > 100 µM | GI50 (MCF7 breast): 1.09 µM | TGI (MCF7 breast): > 100 µM | GI50 (NCI-H522 lung): 2.45 µM | TGI (NCI-H522 lung): > 100 µM | GI50 (NCI-H460 lung): 0.749 µM | TGI (NCI-H460 lung): > 100 µM | GI50 (U251 CNS): 2.82 µM | TGI (U251 CNS): > 100 µM | GI50 (HOP-62 NSCLC): 3.76 µM | TGI (HOP-62 NSCLC): > 100 µM | GI50 (M14 melanoma): 0.5 µM | TGI (M14 melanoma): > 100 µM | GI50 (MDA-MB-231 breast): 1.46 µM | TGI (MDA-MB-231 breast): 44.1 µM | GI50 (LOX IMVI melanoma): 2.1 µM | TGI (LOX IMVI melanoma): > 100 µM | GI50 (MDA-MB-435): 0.335 µM | TGI (MDA-MB-435): 1.24 µM | GI50 (KM12 colon): 1.25 µM | TGI (KM12 colon): > 100 µM | GI50 (EKVX NSCLC): 6.29 µM | TGI (EKVX NSCLC): > 100 µM | GI50 (T-47D breast): 23.9 µM | TGI (T-47D breast): > 100 µM | GI50 (SK-MEL-28 melanoma): 3.77 µM | TGI (SK-MEL-28 melanoma): > 100 µM
